Measured values taken from patent US11793982B2, “Drug delivery devices and methods of fabrication and use therefor” (Purdue Research Foundation, priority 2020, dated 2023).

How the values were obtained:
mice = conditions: cited from earlier work
B16F10 melanoma cells = test: Murine melanoma model, inhibition of post-surgical residual melanoma; format: in vivo, C57BL/6 mice
[1] = test system: B16F10 murine melanoma cells; conditions: cited from earlier work
[2] = test system: epidermis and subcutaneous muscle on the backside of mice; test: In vivo tissue compatibility, real-time bioluminescence (luminol) imaging of acute inflammation; conditions: five hours post-injection

For `COc1cccc2c1C(=O)c1c(O)c3c(c(O)c1C2=O)C[C@@](O)(C(=O)CO)C[C@@H]3O[C@H]1C[C@H](N)[C@H](O)[C@H](C)O1` [DOX, doxorubicin], the “lethal dose (LD50)” value (mice) is listed as “about 192 μg”, the “mice with significant growth of the tumors” value (B16F10 melanoma cells; intratumoral syringe injection, single dose 50 μl, n=5, ten days post-inoculation) is listed as “four out of five mice” and the local skin lesions (B16F10 melanoma cells; syringe injection) is listed as “local skin lesions were observed”. For the same compound, the “half maximal inhibitory concentration (IC50)” value [1] was “about 0.3 μg/ml”.
With `CCCCCCCCCCCCCC(=O)O[C@@H]1[C@@H](C)[C@@]2(O)[C@@H](C=C(CO)C[C@]3(O)C(=O)C(C)=C[C@@H]23)[C@@H]2C(C)(C)[C@]12OC(C)=O` [PMA, phorbol 12-myristate 13-acetate] the “acute inflammation at the implemented sites” value [2] was “acute inflammation appeared”.
